The source of these data is US11008313B2, “Substituted 1-methyl-1,2,3,4-tetrahydroisoquinoline molecules as PCSK9 allosteric binders” (Merck Sharp & Dohme Corp., priority 2016, dated 2021).

Test [1] addresses T1, PCSK9 (Homo sapiens, UniProt Q8NBP7). Put plainly: Differential scanning calorimetry (DSC) assay, direct binding / thermal stabilization of PCSK9. The settings on record: Tm(with compound)−Tm(no compound); 2 μM PCSK9, 300 μM test compound. How it is done:
Differential scanning calorimetry (DSC) was used as a biophysical method to confirm direct binding to PCSK9. A solution containing 2 μM PCSK9 with or without 300 μM test compound in 25 mM HEPES (pH 7.5)/150 mM NaCl/1 mM CaCl2/3.75% DMSO was transferred to the sample cell of the DSC instrument, while buffer alone was placed in the reference cell. Both cells were heated at a constant rate (200° C./hr) from 20-80° C. while recording the excess heat capacity of the sample cell relative to the reference cell. Each thermogram was analyzed to provide the melting temperature (Tm) of the protein.
The higher the temperature shift generally, the higher the affinity.
A general note: In DSC, transitions show as peaks or steps in heat flow.

Test [2] deals with T1, PCSK9. The test can be described thus: Fluorescence polarization competition binding assay (probe: compound of Example 57). The settings on record: 2 μM PCSK9, 50 nM compound of Example 57 as probe, overnight incubation; read-out: FP IC. The protocol: Relative compound affinities were determined using a competition binding assay with a fluorescence polarization format. Solution (49 μL) containing 2 μM PCSK9 and 50 nM compound of Example 57 in 20 mM HEPES (pH 7.5)/150 mM NaCl/1 mM CaCl2/0.005% P-20 was dispensed to wells of a 384-well black non-binding microplate before the addition of 1 μL of test compound or DMSO. After mixing, the plate was centrifuged and sealed for overnight incubation in the dark. The anisotropy signal was read using a fluorescence polarization protocol on a Perkin-Elmer Envision plate reader. The % inhibition was determined relative to the window defined by the DMSO control wells and wells containing 50 nM probe in the absence of PCSK9.
A general note: Fluorescence polarisation rises when a labelled molecule tumbles more slowly, as on binding a larger partner.

T1 sequence (Q8NBP7 153-692): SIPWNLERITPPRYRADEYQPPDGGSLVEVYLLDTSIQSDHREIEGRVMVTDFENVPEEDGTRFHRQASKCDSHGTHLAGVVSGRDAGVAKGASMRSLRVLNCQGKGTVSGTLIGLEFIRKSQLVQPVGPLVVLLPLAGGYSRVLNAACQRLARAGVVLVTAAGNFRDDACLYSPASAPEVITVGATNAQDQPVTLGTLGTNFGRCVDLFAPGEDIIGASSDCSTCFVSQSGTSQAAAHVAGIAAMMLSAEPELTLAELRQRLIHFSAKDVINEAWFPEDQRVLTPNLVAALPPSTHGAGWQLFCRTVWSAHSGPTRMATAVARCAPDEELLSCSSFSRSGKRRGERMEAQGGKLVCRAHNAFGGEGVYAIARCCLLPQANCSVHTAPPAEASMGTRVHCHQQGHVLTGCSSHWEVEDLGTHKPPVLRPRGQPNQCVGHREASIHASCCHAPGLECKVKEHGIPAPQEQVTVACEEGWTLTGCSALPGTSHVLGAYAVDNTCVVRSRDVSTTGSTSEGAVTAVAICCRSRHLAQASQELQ

As usually defined, the ΔTm is the change in melting temperature against a reference sample. Regarding `C[C@]1(CC(=O)Nc2nccs2)NCCc2cc(OCc3ncccn3)c(Oc3ccc(-c4ccc(C(=O)O)cc4)c(F)c3)cc21` [Example 19, (R)-2′-fluoro-4′-((1-methyl-1-(2-oxo-2-(thiazol-2-ylamino)ethyl)-6-(pyrimidin-2-ylmethoxy)-1,2,3,4-tetrahydroisoquinolin-7-yl)oxy)-[1,1′-biphenyl]-4-carboxylic acid], the ΔTm at 300 µM at PCSK9 [1] is 9.05 °C. Moreover, the IC50 on PCSK9 [2] stood at 162 nM.

Consider `C[C@]1(CC(=O)Nc2nccs2)NCCc2cc(OCC3CCCO3)c(Oc3ccc(-c4c[nH]c5c(C(=O)O)cccc45)c(F)c3)cc21` (stereo partly drawn) [Example 20, 3-(2-fluoro-4-(((1R)-1-methyl-1-(2-oxo-2-(thiazol-2-ylamino)ethyl)-6-((tetrahydrofuran-2-yl)methoxy)-1,2,3,4-tetrahydroisoquinolin-7-yl)oxy)phenyl)-1H-indole-7-carboxylic acid], for which the ΔTm at 300 µM on PCSK9 [1] worked out at 8.56 °C. For the same compound, the IC50 on PCSK9 [2] was 188 nM.

As to `COc1cc2c(cc1Oc1ccc(-c3c[nH]c4c(C(=O)O)cccc34)c(F)c1)[C@@](C)(CC(=O)Nc1nccs1)NCC2` [Example 21, (R)-3-(2-fluoro-4-((6-methoxy-1-methyl-1-(2-oxo-2-(thiazol-2-ylamino)ethyl)-1,2,3,4-tetrahydroisoquinolin-7-yl)oxy)phenyl)-1H-indole-7-carboxylic acid], at PCSK9 [1], the ΔTm at 300 µM was 6.58 °C. Further, on PCSK9 [2], the IC50 came to 200 nM.

`COc1cc2c(cc1Oc1ccc(-c3ccc(C(=O)O)cc3)c(F)c1)[C@@](C)(CC(=O)Nc1nccs1)NCC2` [Example 22, (R)-2′-fluoro-4′-((6-methoxy-1-methyl-1-(2-oxo-2-(thiazol-2-ylamino)ethyl)-1,2,3,4-tetrahydroisoquinolin-7-yl)oxy)-[1,1′-biphenyl]-4-carboxylic acid]: the shift in melting temperature (ΔTm) at 300 µM at PCSK9 [1] came to 7.52 °C. The IC50 at PCSK9 [2] was found to be 211 nM.

Turning to `C[C@]1(CC(=O)Nc2nccs2)NCCc2cc(OCC3CCCCO3)c(Oc3ccc(-c4ccc(C(=O)O)cc4)c(F)c3)cc21` (stereo partly drawn) [Example 23, 2′-fluoro-4′-(((1R)-1-methyl-1-(2-oxo-2-(thiazol-2-ylamino)ethyl)-6-((tetrahydro-2H-pyran-2-yl)methoxy)-1,2,3,4-tetrahydroisoquinolin-7-yl)oxy)-[1,1′-biphenyl]-4-carboxylic acid], the ΔTm at 300 µM at PCSK9 [1] was found to be 8.71 °C. Besides, at PCSK9 [2], the IC50 turned out to be 228 nM.

As to `Cc1noc(COc2cc3c(cc2Oc2ccc(-c4ccc(C(=O)O)cc4)c(F)c2)[C@@](C)(CC(=O)Nc2nccs2)NCC3)n1` [Example 24, (R)-2′-fluoro-4′-((1-methyl-6-((3-methyl-1,2,4-oxadiazol-5-yl)methoxy)-1-(2-oxo-2-(thiazol-2-ylamino)ethyl)-1,2,3,4-tetrahydroisoquinolin-7-yl)oxy)-[1,1′-biphenyl]-4-carboxylic acid], the ΔTm at 300 µM at PCSK9 [1] is 7.2 °C. For the same compound, the IC50 on PCSK9 [2] is 261 nM.

As for `COc1cc2c(cc1Oc1ccc(-c3ccc(C(=O)O)cc3F)c(F)c1)[C@@](C)(CC(=O)Nc1nccs1)NCC2` [Example 25, (R)-2,2′-difluoro-4′-((6-methoxy-1-methyl-1-(2-oxo-2-(thiazol-2-ylamino)ethyl)-1,2,3,4-tetrahydroisoquinolin-7-yl)oxy)-[1,1′-biphenyl]-4-carboxylic acid], the ΔTm at 300 µM on PCSK9 [1] was found to be 6.6 °C. Also, the IC50 at PCSK9 [2] came out at 302 nM.

On to `COc1cc2c(cc1Oc1ccc(-c3ccc(C(=O)O)cc3)cc1)[C@@](C)(CC(=O)Nc1nccs1)NCC2` [Example 26, (R)-4′-((6-methoxy-1-methyl-1-(2-oxo-2-(thiazol-2-ylamino)ethyl)-1,2,3,4-tetrahydroisoquinolin-7-yl)oxy)-[1,1′-biphenyl]-4-carboxylic acid], for which the ΔTm at 300 µM on PCSK9 [1] was found to be 5.75 °C. Besides, the IC50 on PCSK9 [2] turned out to be 386 nM.

As to `COc1cc2c(cc1Oc1ccc(-c3ccc(C(=O)O)c(F)c3)c(F)c1)[C@@](C)(CC(=O)Nc1nccs1)NCC2` [Example 27, (R)-2′,3-difluoro-4′-((6-methoxy-1-methyl-1-(2-oxo-2-(thiazol-2-ylamino)ethyl)-1,2,3,4-tetrahydroisoquinolin-7-yl)oxy)-[1,1′-biphenyl]-4-carboxylic acid], the ΔTm at 300 µM at PCSK9 [1] was found to be 7.11 °C. Moreover, the IC50 on PCSK9 [2] is 386 nM.

As for `COc1cc2c(cc1Oc1ccc(-c3ccc(/C=C/C(=O)O)cc3)c(F)c1)[C@@](C)(CC(=O)Nc1nccs1)NCC2` [Example 28, (RE)-3-(2′-fluoro-4′-((6-methoxy-1-methyl-1-(2-oxo-2-(thiazol-2-ylamino)ethyl)-1,2,3,4-tetrahydroisoquinolin-7-yl)oxy)-[1,1′-biphenyl]-4-yl)acrylic acid], the ΔTm at 300 µM on PCSK9 [1] amounted to 6.91 °C. Also, the IC50 at PCSK9 [2] came out at 407 nM.

Turning to `COc1cc2c(cc1Oc1ccc(-c3ccc(C(=O)O)cc3F)cc1)[C@@](C)(CC(=O)Nc1nccs1)NCC2` [Example 29, (R)-2-fluoro-4′-((6-methoxy-1-methyl-1-(2-oxo-2-(thiazol-2-ylamino)ethyl)-1,2,3,4-tetrahydroisoquinolin-7-yl)oxy)-[1,1′-biphenyl]-4-carboxylic acid], the ΔTm at 300 µM on PCSK9 [1] is 5.37 °C. The IC50 at PCSK9 [2] was 416 nM.

With `COc1cc2c(cc1Oc1ccc(-c3ccc(CCC(=O)O)cc3)cc1)[C@@](C)(CC(=O)Nc1nccs1)NCC2` [Example 30, (R)-3-(4′-((6-methoxy-1-methyl-1-(2-oxo-2-(thiazol-2-ylamino)ethyl)-1,2,3,4-tetrahydroisoquinolin-7-yl)oxy)-[1,1′-biphenyl]-4-yl)propanoic acid], the ΔTm at 300 µM at PCSK9 [1] was 5.48 °C. In addition, the IC50 at PCSK9 [2] came to 450 nM.

Consider `COc1cc2c(cc1Oc1ccc(-c3ccc(CC(=O)O)cc3)c(F)c1)[C@@](C)(CC(=O)Nc1nccs1)NCC2` [Example 31, (R)-2-(2′-fluoro-4′-((6-methoxy-1-methyl-1-(2-oxo-2-(thiazol-2-ylamino)ethyl)-1,2,3,4-tetrahydroisoquinolin-7-yl)oxy)-[1,1′-biphenyl]-4-yl)acetic acid], for which the ΔTm at 300 µM on PCSK9 [1] is 5.84 °C. Also, the IC50 on PCSK9 [2] was found to be 522 nM.

Consider `COc1cc2c(cc1Oc1ccc(-c3ccc(CCC(=O)O)cc3)c(F)c1)[C@@](C)(CC(=O)Nc1nccs1)NCC2` [Example 32, (R)-3-(2′-fluoro-4′-((6-methoxy-1-methyl-1-(2-oxo-2-(thiazol-2-ylamino)ethyl)-1,2,3,4-tetrahydroisoquinolin-7-yl)oxy)-[1,1′-biphenyl]-4-yl)propanoic acid], for which, at PCSK9 [1], the ΔTm at 300 µM turned out to be 6.18 °C. At PCSK9 [2], the IC50 stood at 532 nM.

For `COc1cc2c(cc1Oc1ccc(-c3ccc(C(=O)O)cc3F)nc1)[C@@](C)(CC(=O)Nc1nccs1)NCC2` [Example 33, (R)-3-fluoro-4-(5-((6-methoxy-1-methyl-1-(2-oxo-2-(thiazol-2-ylamino)ethyl)-1,2,3,4-tetrahydroisoquinolin-7-yl)oxy)pyridin-2-yl)benzoic acid], the ΔTm at 300 µM on PCSK9 [1] came out at 5.2 °C. The IC50 on PCSK9 [2] is 560 nM.

As to `COc1cc2c(cc1Oc1ccc(-c3ccc(C(=O)O)cc3)cc1)[C@@](C)(CC(=O)Nc1nccs1)NCC2` [Example 34, (R)-4′-((6-methoxy-1-methyl-1-(2-oxo-2-(thiazol-2-ylamino)ethyl)-l,2,3,4-tetrahydroisoquinolin-7-yl)oxy)-[1,1′-biphenyl]-4-carboxylic acid], the “DSC ΔTm” value at PCSK9 [1] worked out at 5.5 °C. Moreover, on PCSK9 [2], the IC50 is 667 nM.

In the case of `COc1cc2c(cc1Oc1ccc(-c3ccc(C(=O)O)cc3)nc1)[C@@](C)(CC(=O)Nc1nccs1)NCC2` [Example 35, (R)-4-(5-((6-methoxy-1-methyl-1-(2-oxo-2-(thiazol-2-ylamino)ethyl)-1,2,3,4-tetrahydroisoquinolin-7-yl)oxy)pyridin-2-yl)benzoic acid], the ΔTm at 300 µM on PCSK9 [1] amounted to 5.29 °C. For the same compound, at PCSK9 [2], the IC50 is 681 nM.

Turning to `COc1cc2c(cc1Oc1ccc(-c3ccc(CC(=O)O)cc3)cc1)[C@@](C)(CC(=O)Nc1nccs1)NCC2` [Example 36, (R)-2-(4′-((6-methoxy-1-methyl-1-(2-oxo-2-(thiazol-2-ylamino)ethyl)-1,2,3,4-tetrahydroisoquinolin-7-yl)oxy)-[1,1′-biphenyl]-4-yl)acetic acid], the shift in melting temperature (ΔTm) at 300 µM at PCSK9 [1] is 5.56 °C. The IC50 at PCSK9 [2] was found to be 767 nM.

Consider `C[C@]1(CC(=O)Nc2nccs2)NCCc2cc(OCCn3cc(C(N)CO)nn3)c(Oc3ccc(C(=O)O)c(F)c3)cc21` (stereo partly drawn) [Example 37, 4-(((1R)-6-(2-(4-(1-amino-2-hydroxyethyl)-1H-1,2,3-triazol-1-yl)ethoxy)-1-methyl-1-(2-oxo-2-(thiazol-2-ylamino)ethyl)-1,2,3,4-tetrahydroisoquinolin-7-yl)oxy)-2-fluorobenzoic acid], for which the ΔTm at 300 µM on PCSK9 [1] is 5.63 °C. Moreover, the IC50 at PCSK9 [2] is 615 nM.

In the case of `CC1(c2cn(CCOc3cc4c(cc3Oc3ccc(C(=O)O)c(F)c3)[C@@](C)(CC(=O)Nc3nccs3)NCC4)nn2)CCOC1` (stereo partly drawn) [Example 38, 2-fluoro-4-(((1R)-1-methyl-6-(2-(4-(3-methyltetrahydrofuran-3-yl)-1H-1,2,3-triazol-1-yl)ethoxy)-1-(2-oxo-2-(thiazol-2-ylamino)ethyl)-1,2,3,4-tetrahydroisoquinolin-7-yl)oxy)benzoic acid], the ΔTm at 300 µM on PCSK9 [1] stood at 7 °C. Moreover, at PCSK9 [2], the IC50 was determined as 267 nM.
